In patent publication US20230242552A1, “Nitrogen-Containing Heterocyclic Compound, Preparation Method Therefor and Use Thereof” (280 Bio, Inc, priority 2022, published 2023):

What was measured:
Details in all cases: CellTiter Glo, 120 hours incubation
[1] = system: SW480 (colon cancer cell lines with KRAS G12V mutation); experiment: Proliferation inhibition measured by CTG, SW480; assay type: cell-based
Description: (§1) NCI-H358 is a human non-small cell lung cancer cell line with KRAS G12C mutation; AGS is a gastric cancer cell line with KRAS G12D mutation; SW480 is a colon cancer cell lines with KRAS G12V mutation; A375 is a wild type malignant melanoma cell line. The proliferation inhibitory effect of the compounds on various mutations was evaluated by determining the proliferation inhibitory activity of the compounds on these cell lines.
(§2) The assay was conducted on either 384-well plates or 96-well plates. The procedures are as follows:
(§3) The cell suspensions were added to 384- or 96-well plates (384-well plate: 40 μL; 96-well plate: 100 μL) except for peripheral wells. The plates were incubated in a carbon dioxide incubator overnight. Prepared compounds (10 concentration gradients by serial 3-fold dilution) were added to the wells. The cell plates were incubated in a carbon dioxide incubator for 120 hours. CellTiter Glo reagent (384 well plate: 25 μL; 96 well plate: 100 μL) was added to the 384- or 96-well plates. The plates were shaken for 10 minutes away from light, and incubated for 10 minutes. The plates were read by EnVision system. Inhibition curves were plotted using XLFit and IC50 values were calculated. “IC50>10 μM” is denoted by “*”, “10 μM≥IC50>1 μM” is denoted by […] is denoted by “***”, “---” means no data.

[2] = system: NCI-H358 (KRAS G12C mutation); experiment: Proliferation inhibition measured by CTG, NCI-H358; assay type: cell-based, human
Description: as §1, §2, §3

[3] = system: AGS (gastric cancer cell line with KRAS G12D mutation); experiment: Proliferation inhibition measured by CTG, AGS; assay type: cell-based
Description: as §1, §2, §3

[4] = system: A375 (wild type malignant melanoma cell line); experiment: Proliferation inhibition measured by CTG, A375; assay type: cell-based
Description: as §1, §2, §3

Row | Compound | IC50 ([1]; Homo sapiens, SW480, 120 h) [nM] | IC50 ([2]; Homo sapiens, NCI-H358, 120 h) [nM] | IC50 ([3]; 120 h) [nM] | IC50 ([4]; Homo sapiens, A-375, 120 h) [nM] | IC50 [1] [nM] | IC50 [2] [nM] | IC50 [3] [nM] | IC50 [4] [nM]
1 | CC1Cc2cncc(F)c2CN1c1nc(OC[C@@H]2CCCCN2C)nc2c1CCN(c1cccc3cccc(Cl)c13)C2 (stereo partly drawn) [Compound 9-1] | ≤ 1000 | ≤ 1000 | ≤ 1000 | ≤ 1000 |  |  |  | 
2 | CC1Cc2cncc(F)c2CN1c1nc(OC[C@@H]2CCCCN2C)nc2c1CCN(c1cccc3cccc(Cl)c13)C2 (stereo partly drawn) [Compound 9-2] |  |  |  |  | ≤ 1000 | ≤ 1000 | ≤ 1000 | ≤ 1000
3 | C[C@H]1Cc2cncc(F)c2CN1c1nc(OC[C@@H]2CCCCN2C)nc2c1CCN(c1cccc3cccc(F)c13)C2 [Compound 12] | ≤ 1000 | ≤ 1000 | ≤ 1000 | ≤ 1000 |  |  |  | 
4 | C[C@H]1Cc2cncc(F)c2CN1c1nc(OC[C@@H]2CCCN2C)nc2c1CCN(c1cncc3ccccc13)C2 [Compound 13] | 1000 to 10000 | 1000 to 10000 | 1000 to 10000 | > 10000 |  |  |  | 
5 | C[C@H]1Cc2cncc(F)c2CN1c1nc(OC[C@@H]2CCCN2C)nc2c1CCN(c1cccc3ncccc13)C2 [Compound 14] | 1000 to 10000 | 1000 to 10000 | 1000 to 10000 | 1000 to 10000 |  |  |  | 
6 | C[C@H]1Cc2cncc(F)c2CN1c1nc(OC[C@@H]2CCCN2C)nc2c1CCN(c1cccc3cccc(F)c13)C2 [Compound 15] | ≤ 1000 | ≤ 1000 | ≤ 1000 | 1000 to 10000 |  |  |  | 
7 | C[C@H]1Cc2cncc(F)c2CN1c1nc(OC[C@@H]2CCCN2C)nc2c1CCN(c1ccnc3ccccc13)C2 [Compound 16] | 1000 to 10000 | 1000 to 10000 | 1000 to 10000 | 1000 to 10000 |  |  |  | 
8 | C[C@H]1Cc2cncc(F)c2CN1c1nc(OC[C@@H]2CCCN2C)nc2c1CCN(c1cccc3cccnc13)C2 [Compound 17] | ≤ 1000 | ≤ 1000 | ≤ 1000 | 1000 to 10000 |  |  |  | 
9 | C[C@H]1Cc2cncc(F)c2CN1c1nc(OC[C@@H]2CCCN2C)nc2c1CCN(c1cccc3ccncc13)C2 [Compound 18] | 1000 to 10000 | 1000 to 10000 | 1000 to 10000 | 1000 to 10000 |  |  |  | 
10 | C[C@H]1Cc2cncc(F)c2CN1c1nc(OC[C@@H]2CCCN2C)nc2c1CCN(c1cccc3cnccc13)C2 [Compound 19] | 1000 to 10000 | 1000 to 10000 | 1000 to 10000 | > 10000 |  |  |  | 
11 | C[C@H]1Cc2cncc(F)c2CN1c1nc(OC[C@@H]2CCCN2C)nc2cc(-c3cccc4cccc(Cl)c34)ccc12 [Compound 20] | ≤ 1000 | 1000 to 10000 | ≤ 1000 | 1000 to 10000 |  |  |  | 
12 | C[C@H]1Cc2cncc(F)c2CN1c1nc(OC[C@@H]2CCCN2C)nc2cc(-c3cccc4cccc(F)c34)ccc12 [Compound 21] | 1000 to 10000 | 1000 to 10000 | ≤ 1000 | 1000 to 10000 |  |  |  | 
13 | C[C@H]1Cc2cncc(F)c2CN1c1nc(OC[C@H]2CCCN2C)nc2c1CCN(c1cccc3cccc(F)c13)C2 [Compound 22] | ≤ 1000 | ≤ 1000 | ≤ 1000 | 1000 to 10000 |  |  |  | 
14 | C[C@H]1Cc2cncc(F)c2CN1c1nc(OC[C@H]2CCCCN2C)nc2c1CCN(c1cccc3cccc(F)c13)C2 [Compound 23] | 1000 to 10000 | 1000 to 10000 | ≤ 1000 | 1000 to 10000 |  |  |  | 
15 | C[C@H]1Cc2cncc(F)c2CN1c1nc(OC[C@H]2COCCN2C)nc2c1CCN(c1cccc3cccc(F)c13)C2 [Compound 24] | 1000 to 10000 | 1000 to 10000 | 1000 to 10000 | > 10000 |  |  |  | 
16 | C[C@H]1Cc2cncc(F)c2CN1c1nc(OC[C@@H]2CN(C)CCN2C)nc2c1CCN(c1cccc3cccc(F)c13)C2 [Compound 25] | 1000 to 10000 | 1000 to 10000 | 1000 to 10000 | 1000 to 10000 |  |  |  | 
17 | C[C@@H](CN(C)C)Oc1nc2c(c(N3Cc4c(F)cncc4C[C@@H]3C)n1)CCN(c1cccc3cccc(F)c13)C2 [Compound 26] | 1000 to 10000 | 1000 to 10000 | 1000 to 10000 | 1000 to 10000 |  |  |  | 
18 | C[C@@H]1Cc2cncc(F)c2CN1c1nc(OC[C@@H]2CCCN2C)nc2cc(-c3ccc(F)c4sc(N)nc34)ccc12 [Compound 27] | ≤ 1000 | ≤ 1000 | ≤ 1000 | ≤ 1000 |  |  |  | 
19 | C[C@@H]1Cc2cncc(F)c2CN1c1nc(OC[C@@H]2CCCCN2C)nc2c1CCN(c1cccc3cccc(F)c13)C2 [Compound 28] | ≤ 1000 | ≤ 1000 | ≤ 1000 | ≤ 1000 |  |  |  | 
20 | C[C@@H]1Cc2cncc(F)c2CN1c1nc(O[C@@H](C)CN(C)C)nc2c1CCN(c1cccc3cccc(F)c13)C2 [Compound 29] | ≤ 1000 | ≤ 1000 | ≤ 1000 | 1000 to 10000 |  |  |  | 
21 | C[C@@H]1Cc2cncc(F)c2CN1c1nc(OC[C@H]2CCCCN2C)nc2c1CCN(c1cccc3cccc(F)c13)C2 [Compound 30] | ≤ 1000 | ≤ 1000 | ≤ 1000 | ≤ 1000 |  |  |  | 
22 | C[C@@H]1Cc2cncc(F)c2CN1c1nc(OC[C@H]2CCCN2C)nc2c1CCN(c1cccc3cccc(F)c13)C2 [Compound 31] | ≤ 1000 | ≤ 1000 | ≤ 1000 | ≤ 1000 |  |  |  | 
23 | C[C@@H]1Cc2cncc(F)c2CN1c1nc(OC[C@@H]2CCCN2C)nc2c1CCN(c1cccc3cccnc13)C2 [Compound 32] | ≤ 1000 | ≤ 1000 | ≤ 1000 | ≤ 1000 |  |  |  | 
24 | C[C@@H]1Cc2cncc(F)c2CN1c1nc(OC[C@@H]2CCCN2C)nc2cc(-c3cccc4cccnc34)ccc12 [Compound 33] | ≤ 1000 | ≤ 1000 | ≤ 1000 | ≤ 1000 |  |  |  | 
